System: mouse sensory neurons activated by mix of GPCR agonists (histamine, serotonin, bradykinin)
Assay: Calcium flux in sensory neurons activated by mix of GPCR agonists
Assay type: cell-based
Details: serotonin 10 μM each, pretreatment with increasing amounts of compound
Experimental: FIG. 4: C12-Asn-GABA inhibits neuronal activation via the GABA B receptor. Amplitude of intracellular calcium mobilization (ΔF/F; right panel) in mouse sensory neurons and percentage of responding neurons (left panel) pretreated with increasing amounts of C12-Asn-GABA (black circle) or vehicle (HBSS; white circle) and treated with capsaicin (125 nM; A) or a mix of G protein coupled receptor agonists (histamine, serotonin and bradykinin 10 μM each; B). Data are represented as mean±SEM; n=4 independent experiments of 3 wells per condition and 30-80 neurons per well. […] Percentage of responding neurons pretreated with increasing amounts of saclofen (black circle) or vehicle (HBSS; white circle) and treated with C12-Asn-GABA (10 μM) and capsaicin (125 nM; C) or a mix of G protein coupled receptor agonist (histamine, serotonin and bradykinin 10 μM each; D). Data are represented as mean±SEM; n=4 independent experiments of 3 wells per condition and 30-80 neurons per well.
Male C57B16 mice (6-8 weeks) were used to produce primary cultures of dorsal root ganglia (DRG) sensory neurons for calcium flux experiments, and to perform studies of colorectal distention and intestinal isotonic contraction. All procedures were approved by Institutional Animal Care Committees (CEEA 122). […]

CCCCCCCCCCCC(=O)NC(CC(N)=O)C(=O)NCCCC(=O)O (stereo not shown) [C12-Asn-GABA, C11 C(O)-Asn-gamma-aminobutyric acid]
calcium flux increase induced by mix of GPCR agonists (% responding neurons, amplitude ΔF/F): prevented by C12-Asn-GABA pretreatment in a dose-dependent manner

Source: US11912645B2, “Lipopeptide compounds for the treatment of pain disorders” (INSERM (Institut National de la Santé et de la Recherche …, priority 2017, dated 2024)
